Values after ≈ are worked out from the molar mass of the structure shown. Values joined by “and” are separate entries in the source; they are usually repeats but may differ in a detail not shown here. Equal entries are not always repeated. Where two headings read alike, the source gives them in different places.
Assays:
[1] = Metabolic stability with human liver microsomes; type: in vitro ADME; settings: for half-life at 1 μM: pH 7.6
[2] = target: neutrophil elastase in human plasma (Homo sapiens (Human), UniProt P08246); assay: Neutrophil elastase inhibitory activity in human plasma (zymosan-stimulated blood); type: biochemical
Experimental: Assay for the Determination of Neutrophil Elastase Inhibitory Activity in Human Plasma
Citrated blood from human healthy donors is mixed with zymosan suspension and incubated at room temperature. This leads to the stimulation of neutrophils and the release of neutrophil elastase into the plasma. The stimulated blood is centrifuged to generate the neutrophil elastase enriched plasma.
Various concentrations of the neutrophil elastase inhibitor are incubated with plasma. […] A dose response curve is generated to calculate the EC50 of the inhibitor.

[3] = target: Human neutrophil elastase (Homo sapiens (Human), UniProt P08246); assay: Human Neutrophil Elastase Assay; type: biochemical; settings: substrate MeOSuc-Ala-Ala-Pro-Val-AMC 250 μM, pH 7.5
cytochrome P450 2C8 = cytochrome P450 2C8 (Homo sapiens (Human), UniProt P10632); assay: Cytochrome P450 2C8 inhibition; type: in vitro ADME; settings: human liver microsomes; for IC50: Amodiaquine deethylation, read-out: CYP2C8 IC50
cytochrome P450 2C19 = cytochrome P450 2C19 (Homo sapiens (Human), UniProt P33261); assay: Cytochrome P450 2C19 inhibition; type: in vitro ADME; settings: human liver microsomes; for IC50: (S)-Mephenytoin hydroxylation, read-out: CYP2C19 IC50
cytochrome P450 2C9 = cytochrome P450 2C9 (Homo sapiens (Human), UniProt P11712); assay: Cytochrome P450 2C9 inhibition; type: in vitro ADME; settings: human liver microsomes; for IC50: Diclofenac hydroxylation, read-out: CYP2C9 IC50
human hepatocytes = assay: Metabolic stability with human hepatocytes; type: in vitro ADME; settings: for CL (predicted human hepatic in vivo blood clearance): human hepatocyte suspension, 1 μM test compound, scaled with well stirred model
Experimental: Assay for the Determination of Metabolic Stability with Human Hepatocytes The metabolic degradation of the test compound is assayed in a human hepatocyte suspension. Human hepatocytes (typically cryopreserved) are incubated in an appropriate buffer system (e.g. […] Samples are transferred into acetonitrile and pelleted by centrifugation (5 min) The supernatant is transferred to a new 96-deepwell plate, evaporated under nitrogen and resuspended. The decline of parent compound is analyzed by LC-MS/MS.

[4] = Drug transport across human Caco-2 cells; type: in vitro ADME; settings: human; for Papp A→B at 10 µM / Papp B→A at 10 µM: Caco-2, pH 7.2, Caco-2 monolayers, pH 7.2, 37° C.; for Papp A→B at 10 µM: apical-to-basal, read-out: PEAB; for Papp B→A at 10 µM: basal-to-apical, read-out: PEBA; for efflux ratio at 10 μM: Caco-2, pH 7.2, PEBA/PEAB, Caco-2
Description: (§1) Assay for Determination of Drug Transport Across Human Caco-2 Cells The assay provides information on the potential of a compound to pass the cell membrane, on the extent of oral absorption as well as on whether the compound is actively transported by uptake and/or efflux transporters. […] The compounds are assigned to permeability/absorption classes by comparison of the AB permeabilities with the AB permeabilities of reference compounds with known in vitro permeability and oral absorption in the human. Identical or similar permeabilities in both transport directions indicate passive permeation, vectorial permeability points to additional active transport mechanisms. […] Active transport is concentration-dependently saturable. Caco-2 cells (1-2*10^5 cells/cm^2 area) are seeded on filter inserts (Costar transwell polycarbonate or PET filters, 0.4 nm pore size) and cultured (DMEM) for 10 to 25 days. […] The transport solution (TL) is applied ici to the apical or basolateral donor side for measuring A-B or B-A permeability (3 filter replicates), respectively. The receiver side contains HTP-4 buffer supplemented with 2% BSA. […] Sampled receiver volumes are replaced with fresh receiver solution.

Aqueous solubility = type: physicochemical; settings: McIlvaine buffer pH 6.8, 2.5% DMSO, 24 h shaking; for solubility at 24 h: McIlvaine buffer pH 6.8 with 2.5% DMSO, pH 6.8, aqueous buffer, kinetic from dmso stock
Experimental: Assay for Determination of Aqueous Solubility […] After 24 h of shaking, the solutions or suspensions are filtered and analyzed by LC-UV. The amount dissolved in buffer is compared to the amount dissolved in the acetonitrile/water (1/1) solution.

Caco-2 cells = assay: Drug transport across human Caco-2 cells; type: in vitro ADME; settings: for PEBA / PEAB: Caco-2 monolayers, pH 7.2, 37° C.; for PEBA: basal-to-apical; for Efflux ratio: PEBA/PEAB, Caco-2; for PEAB: apical-to-basal; for AB permeability (PEAB): Caco-2, pH 7.2, 37° C., compared to prior-art cyclic amide derivative
Description: as §1

[5] = neutrophil elastase enriched human plasma from zymosan-stimulated blood, read-out: EC50
[6] = human neutrophil elastase, read-out: IC50
[7] = pooled human liver microsomes, 1 mg/ml protein, 1 μM test compound, 37° C., NADPH
[8] = compared to example 8A disclosed in WO 2005/0828683

cytochrome P450 2C8, sequence (P10632 whole entry): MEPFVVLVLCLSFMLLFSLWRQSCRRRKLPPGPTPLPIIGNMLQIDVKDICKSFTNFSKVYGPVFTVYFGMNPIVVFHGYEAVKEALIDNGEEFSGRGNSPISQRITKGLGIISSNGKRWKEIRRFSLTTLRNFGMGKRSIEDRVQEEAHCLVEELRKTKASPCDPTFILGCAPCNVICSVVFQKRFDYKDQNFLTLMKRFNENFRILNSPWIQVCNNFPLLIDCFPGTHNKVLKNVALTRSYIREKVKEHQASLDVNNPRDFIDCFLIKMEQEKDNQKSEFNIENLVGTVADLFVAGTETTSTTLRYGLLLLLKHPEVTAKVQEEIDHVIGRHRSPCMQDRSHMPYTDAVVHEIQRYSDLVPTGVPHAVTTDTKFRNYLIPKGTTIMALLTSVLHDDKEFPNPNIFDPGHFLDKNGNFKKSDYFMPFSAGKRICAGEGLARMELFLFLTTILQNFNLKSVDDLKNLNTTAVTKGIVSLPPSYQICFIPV
cytochrome P450 2C19, sequence (P33261 whole entry): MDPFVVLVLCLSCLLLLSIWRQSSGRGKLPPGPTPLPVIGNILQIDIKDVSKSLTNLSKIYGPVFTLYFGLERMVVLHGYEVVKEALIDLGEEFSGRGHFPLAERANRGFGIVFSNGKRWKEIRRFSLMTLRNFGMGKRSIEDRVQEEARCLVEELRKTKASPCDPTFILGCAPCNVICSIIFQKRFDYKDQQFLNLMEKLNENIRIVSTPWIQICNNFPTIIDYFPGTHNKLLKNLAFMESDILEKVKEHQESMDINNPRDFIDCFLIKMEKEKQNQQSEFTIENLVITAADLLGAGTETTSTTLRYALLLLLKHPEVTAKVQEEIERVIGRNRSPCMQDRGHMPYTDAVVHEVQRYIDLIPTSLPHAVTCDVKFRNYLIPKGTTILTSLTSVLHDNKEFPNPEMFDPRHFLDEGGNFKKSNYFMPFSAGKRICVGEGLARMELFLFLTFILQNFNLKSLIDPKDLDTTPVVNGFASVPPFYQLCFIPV
neutrophil elastase in human plasma, sequence (P08246 30-247): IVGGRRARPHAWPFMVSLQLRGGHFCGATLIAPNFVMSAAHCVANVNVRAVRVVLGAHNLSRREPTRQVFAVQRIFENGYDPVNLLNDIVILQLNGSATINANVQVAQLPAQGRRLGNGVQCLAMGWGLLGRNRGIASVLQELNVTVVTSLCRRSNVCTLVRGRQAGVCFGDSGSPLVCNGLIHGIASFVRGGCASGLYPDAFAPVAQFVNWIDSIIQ
Human neutrophil elastase, sequence (P08246 30-247): as above
cytochrome P450 2C9, sequence (P11712 whole entry): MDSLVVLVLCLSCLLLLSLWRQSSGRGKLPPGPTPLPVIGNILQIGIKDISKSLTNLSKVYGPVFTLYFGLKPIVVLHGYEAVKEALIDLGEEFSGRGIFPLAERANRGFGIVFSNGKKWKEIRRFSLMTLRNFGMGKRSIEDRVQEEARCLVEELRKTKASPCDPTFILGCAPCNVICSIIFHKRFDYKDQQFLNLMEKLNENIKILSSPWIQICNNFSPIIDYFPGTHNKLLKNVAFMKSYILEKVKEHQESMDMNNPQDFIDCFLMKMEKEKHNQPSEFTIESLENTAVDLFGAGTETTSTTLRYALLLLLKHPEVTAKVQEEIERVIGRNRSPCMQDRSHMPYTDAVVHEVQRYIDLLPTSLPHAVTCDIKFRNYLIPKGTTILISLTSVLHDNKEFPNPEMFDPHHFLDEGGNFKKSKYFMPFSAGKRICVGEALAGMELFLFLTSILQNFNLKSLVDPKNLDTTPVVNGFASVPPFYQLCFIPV

SMILES	half-life at 1 μM ([1]; human, microsomes)	EC50 [2, 5]	IC50 [3, 6]	IC50 (cytochrome P450 2C8)	IC50 (cytochrome P450 2C19)	IC50 (cytochrome P450 2C9)	CL (predicted human hepatic in vivo blood clearance) (human hepatocytes)	Papp A→B at 10 µM [4]	Papp B→A at 10 µM [4]	efflux ratio at 10 μM [4]	solubility at 24 h (Aqueous solubility)	t1/2 INVITRO [1, 7]	PEBA (Caco-2 cells)	Efflux ratio (Caco-2 cells)	Aqueous solubility (Aqueous solubility)	PEAB (Caco-2 cells)	further results
CC(C)(O)CNC(=O)N1C(=O)N(c2cccc(C(F)(F)F)c2)C2=C(C(=O)CC2)[C@H]1c1ccc(C#N)cc1 [Example 41A, (R)-4-(4-Cyanophenyl)-N-(2-hydroxy-2-methylpropyl)-2,5-dioxo-1-(3-(trifluoro-methyl)phenyl)-4,5,6,7-tetrahydro-1H-cyclopenta[d]pyrimidine-3(2H)-carboxamide]	> 2.17 h	< 1 nM	< 1 nM	> 50000 nM	> 50000 nM	> 50000 nM	0 mL/min/kg	11.1 ×10⁻⁶ cm/s	75.1 ×10⁻⁶ cm/s	6.8	79 µg/mL (≈ 154 µM)	–	–	–	–	–	–
CNC(=O)N1C(=O)N(c2cccc(C(F)(F)F)c2)C2=C(C(=O)CC2)[C@H]1c1ccc(C#N)cc1S(C)(=O)=O [Example 47.1]	> 2.17 h	< 1 nM	< 1 nM	> 50000 nM	> 50000 nM	> 50000 nM	0 mL/min/kg	8.13 ×10⁻⁶ cm/s	65.1 ×10⁻⁶ cm/s	8	83 µg/mL (≈ 156 µM)	–	–	–	–	–	–
C[C@H](O)CNC(=O)N1C(=O)N(c2cccc(C(F)(F)F)c2)C2=C(C(=O)CC2)C1c1ccc(C#N)cc1 (some centres unmarked) [Example 41.1]	–	–	–	–	–	–	2 mL/min/kg	–	–	–	–	>2.17 h	72.9 ×10⁻⁶ cm/s and 90.3 ×10⁻⁶ cm/s	8.9 and 4.8	97 µg/mL and 73 µg/mL	–	–
CN1C(=O)N(c2cccc(C(F)(F)F)c2)C2=C(C(=O)CC2)C1c1ccc(C#N)cc1[S+](C)[O-] (single isomer, unassigned) [Example 30B, 4-(3-Methyl-2,5-dioxo-1-(3-(trifluoromethyl)phenyl)-2,3,4,5,6,7-hexahydro-1H-cyclopenta[d]pyrimidin-4-yl)-3-(methylsulfinyl)benzonitrile]	–	–	–	–	–	–	–	–	71.4 ×10⁻⁶ cm/s	5.9	65 µg/mL (≈ 137 µM)	–	–	–	–	12 ×10⁻⁶ cm/s	half-life at 1 μM ([1]; pooled human liver microsomes, 1 mg/ml protein, 1 μM test compound, 37° C., NADPH, read-out: t1/2 INVITRO): > 2.17 h; EC50 ([2]; EC50, neutrophil elastase enriched human plasma from zymosan-stimulated blood): 2 nM; IC50 ([3]; IC50, human neutrophil elastase): 2 nM
CS(=O)(=O)c1cc(C#N)ccc1[C@H]1NC(=O)N(c2cccc(C(F)(F)F)c2)C2=C1C(=O)CC2 [Example 10A, (S)-4-(2,5-Dioxo-1-(3-(trifluoromethyl)phenyl)-2,3,4,5,6,7-hexahydro-1H-cyclopenta[d]pyrimidin-4-yl)-3-(methylsulfonyl)benzonitrile]	> 2.17 h	1 nM	2.6 nM	> 50000 nM	39000 nM	> 50000 nM	0 mL/min/kg	4.93 ×10⁻⁶ cm/s	57.4 ×10⁻⁶ cm/s	14.5	84.5 µg/mL (≈ 178 µM)	–	–	–	–	–	AB permeability (PEAB) (Caco-2 cells): improved AB permeability
CCNC(=O)N1C(=O)N(c2cccc(C(F)(F)F)c2)C2=C(C(=O)CC2)[C@H]1c1ccc(C#N)cc1S(C)(=O)=O [Example 47.2]	> 2.17 h	< 1 nM	< 1 nM	> 50000 nM	> 50000 nM	> 50000 nM	1 mL/min/kg	12.8 ×10⁻⁶ cm/s	84.5 ×10⁻⁶ cm/s	–	45 µg/mL (≈ 82.3 µM)	–	–	–	–	–	–
C[C@H](CO)NC(=O)N1C(=O)N(c2cccc(C(F)(F)F)c2)C2=C(C(=O)CC2)C1c1ccc(C#N)cc1 (some centres unmarked) [Example 41.4]	–	–	–	–	–	–	5 mL/min/kg	–	–	–	–	>2.17 h	81.5 ×10⁻⁶ cm/s	8.7	92 µg/mL	9.41 ×10⁻⁶ cm/s	–
CS(=O)(=O)N1C(=O)N(c2cccc(C(F)(F)F)c2)C2=C(C(=O)CC2)[C@H]1c1ccc(C#N)cc1 [Example 9A, (R)-4-(3-(Methylsulfonyl)-2,5-dioxo-1-(3-(trifluoromethyl)phenyl)-2,3,4,5,6,7-hexahydro-1H-cyclopenta[d]pyrimidin-4-yl)benzonitrile]	> 2.17 h	2 nM	3 nM	> 50000 nM	> 50000 nM	> 50000 nM	0 mL/min/kg	43.9 ×10⁻⁶ cm/s	73 ×10⁻⁶ cm/s	1.7	–	–	–	–	–	–	–
N#Cc1ccc([C@H]2NC(=O)N(c3cccc(C(F)(F)F)c3)C3=C2C(=O)CC3)cc1 [Example 1A, (R)-4-(2,5-Dioxo-1-(3-(trifluoromethyl)phenyl)-2,3,4,5,6,7-hexahydro-1H-cyclopenta[d]pyrimidin-4-yl)benzonitrile]	> 2.17 h	–	–	–	–	–	6 mL/min/kg	51 ×10⁻⁶ cm/s	76.4 ×10⁻⁶ cm/s	–	74 µg/mL (≈ 186 µM)	–	–	–	–	–	half-life (t1/2 INVITRO), metabolic stability ([1]; human, microsomes): improved half life; CYP2C8 inhibition (cytochrome P450 2C8; [8]): reduced CYP2C8 inhibition; CYP2C19 inhibition (cytochrome P450 2C19; compared to example 8A in WO 2005/0828683): reduced CYP2C19 inhibition; CYP2C9 inhibition (cytochrome P450 2C9; [8]): reduced CYP2C9 inhibition; predicted human hepatic in vivo blood clearance (CL) (human hepatocytes; human hepatocytes, compared to example 8A disclosed in WO 2005/0828683): reduced clearance; AB permeability (PEAB) (Caco-2 cells): improved AB permeability
N#Cc1ccc(C2C3=C(CCC3=O)N(c3cccc(C(F)(F)F)c3)C(=O)N2C(=O)NCCCO)cc1 (centres unmarked) [Example 7.3]	–	–	–	–	–	–	7 mL/min/kg	–	–	–	–	>2.17 h	67.1 ×10⁻⁶ cm/s	7.1	72 µg/mL	9.49 ×10⁻⁶ cm/s	–
CC(C)(O)CCNC(=O)N1C(=O)N(c2cccc(C(F)(F)F)c2)C2=C(C(=O)CC2)C1c1ccc(C#N)cc1 (centres unmarked) [Example 41.17]	–	–	–	–	–	–	3 mL/min/kg	–	–	–	–	>2.17 h	80.7 ×10⁻⁶ cm/s	3.5	54 µg/mL	23.4 ×10⁻⁶ cm/s	–
